{"source": "patent US11311573B2", "about": "“Pharmaceutical preparations and methods to manage weight and to modulate the gut microbiota” (XENO BIOSCIENCES INC., priority 2016, dated 2022)", "origin": "cited, not measured here", "settings": "rat, based on chronic oral hydrogen peroxide treatment", "data": [{"smiles": "O=C([O-])[O-].O=C([O-])[O-].OO.OO.OO.[Na+].[Na+].[Na+].[Na+]", "note": "[sodium percarbonate, Sodium percarbonate]", "values": [{"measurement": "No-observable-adverse-effect-level (NOAEL)", "value": "81 to 115", "unit": "mg/kg/day"}]}]}
